# Measured values: US8575091B1, “Amylin analogues and pharmaceutical compositions thereof” (Novo Nordisk A/S, priority 2012, dated 2013)
# Read-outs that look alike come from different tables or passages of the source. Numbered stars: 1 amine (or outer) side, 2 acyl side, 3 side chain; on linkers, the order of the positions; unused ones are H or OH. Bridge positions count the residues as written; N and C are the ends. Side chains are listed from the residue outwards. Peptide text beside a SMILES is read from it. * marks the point of attachment. C20 diacid = O=C(O)CCCCCCCCCCCCCCCCCCC(=O)*; γGlu = O=C(O)[C@H](CCC(=O)[*:2])N[*:1]
# Key:
# [1] = target: T1, human amylin receptor (Homo sapiens, UniProt O60896+P30988); assay: Assay (V) binding to the human amylin receptor (SPA, 125I-rat amylin); conditions: for IC50: read-out: hAmylin-R bind IC50
# T1 construct: expressed in transfected cells
# T1 sequence (P30988 25-474): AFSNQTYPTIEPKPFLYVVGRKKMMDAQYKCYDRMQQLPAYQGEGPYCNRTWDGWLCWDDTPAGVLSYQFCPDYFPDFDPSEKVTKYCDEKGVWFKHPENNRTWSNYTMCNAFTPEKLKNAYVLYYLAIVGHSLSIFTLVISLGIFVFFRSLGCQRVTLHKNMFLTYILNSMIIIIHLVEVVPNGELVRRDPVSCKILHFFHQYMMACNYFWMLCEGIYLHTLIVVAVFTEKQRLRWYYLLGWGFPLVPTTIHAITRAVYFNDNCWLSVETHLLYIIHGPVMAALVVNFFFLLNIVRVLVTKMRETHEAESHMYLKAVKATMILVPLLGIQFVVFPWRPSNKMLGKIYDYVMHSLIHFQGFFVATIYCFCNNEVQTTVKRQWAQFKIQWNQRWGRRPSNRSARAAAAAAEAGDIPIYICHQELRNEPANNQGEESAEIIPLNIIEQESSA
# T1 sequence (O60896 24-148 partner): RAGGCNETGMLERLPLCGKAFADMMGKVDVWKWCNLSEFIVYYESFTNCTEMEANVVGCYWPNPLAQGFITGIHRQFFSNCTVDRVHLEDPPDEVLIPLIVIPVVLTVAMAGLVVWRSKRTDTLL
# Procedure, shortened: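 IC50, taken as receptor affinity, came from one-site binding competition analysis of scintillation proximity counts. Amylin 3(a)/CRE-luc cell membranes (35 ng/μL final) were mixed with SPA beads (0.05 mg/well) in 50 mM Hepes pH 7.4 containing CaCl2, MgCl2, 0.1% OA and 0.02% Tween20.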
# [2] = system: Wistar rats; assay: Assay (XII) single subcutaneous administration, plasma calcium in rats; format: in vivo, rat; conditions: 100 nmol/kg
# Method: Assay (XII)—Effect from Single Subcutaneous Administration of Analogue on Plasma Calcium in Rats
# Male Wistar rats (Taconic Europe, ˜250 g at test date) were acclimatized to handling prior to the study. Rats were divided in groups of five and subcutaneously dosed with test compound at time=0. At time T=−15 min; 1 h, 2 h, 4 h, 7 h, 12 h, and 24 h a blood sample was obtained and heparin stabilized plasma was analysed for total calcium (Cobas, Hitachi). Data are illustrated in graphs as mean±SEM.
# [3] = target: T2, human calcitonin receptor (Homo sapiens, UniProt P30988); assay: Assay (II)a functional assay, human calcitonin receptor (CRE luciferase, BHK cells);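 note: luminescence from a CRE-driven luciferase reporter, read by single photon counting after cells were exposed to test samples for 3 h at 37 °C under 5% CO2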; format: cell-based; conditions: read-out: hCTR funct. EC50
# T2 construct: expressed in transfected cells
# T2 sequence (P30988 25-474): T1 sequence (P30988 25-474)
# [4] = target: T2, human calcitonin receptor; assay: Assay (VII) binding to the human calcitonin receptor (SPA, 125I-Calcitonin); conditions: read-out: hCTR bind IC50;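 note: cell membranes coupled to SPA beads, competitive displacement read by scintillation counting, IC50 derived from a one-site competition fit as a measure of receptor affinity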
# [5] = target: T3, human amylin receptor (amylin 3(a) receptor: human calcitonin receptor + RAMP-3) (Homo sapiens, UniProt O60896+P30988); assay: Assay (II)a functional assay, human amylin receptor (CRE luciferase, BHK cells); format: cell-based; conditions: for EC50: functional assay, human amylin receptor, read-out: hAmylin-R funct. EC50
# T3 construct: expressed in transfected cells
# T3 sequence (P30988 25-474): T1 sequence (P30988 25-474)
# T3 sequence (O60896 24-148 partner): T1 sequence (O60896 24-148 partner)
# [6] = Assay (IV) determination of solubility; format: physicochemical; conditions: for Solubility pH 6.5 Concentration (μM): pH 6.5, 18 hours room temperature; for Solubility pH 7.0 Concentration (μM): pH 7.0, 18 hours room temperature; for Solubility pH 7.5 Concentration (μM): pH 7.5, 18 hours room temperature; for Solubility pH 8.0 Concentration (μM): pH 8.0, 18 hours room temperature
# Method: Assay (IV)—Determination of Solubility
# The polypeptide was dissolved in water at ˜500 nmol/ml and mixed 1:1 with a series of buffers (100 mM glycylglycine pH 3.0, 100 mM glycylglycine pH 4.0, 100 mM glycylglycine pH 5.0, 100 mM bistrispropane pH 6.0, 100 mM bistrispropane pH 6.5, 100 mM bistrispropane pH 7.0, 100 mM bistrispropane pH 7.5, 100 mM bistrispropane pH 8.0). After 18 hours at room temperature the samples were centrifuged and the polypeptide concentration determined by UPLC.
# [7] = human amylin receptor membranes, SPA
# [8] = Table 6, human functional selectivity (hCTR EC50 / hAmylin-R EC50)
# [9] = Table 6a, human functional selectivity (hCTR EC50 / hAmylin-R EC50), at least 5
# [10] = Table 6j, hCTR funct. EC50 / hAmylin-R funct. EC50
# [11] = Table 6k, hCTR funct. EC50 / hAmylin-R funct. EC50
"IC50 [1, 7] [nM]",EC50 [3] [nM],IC50 [4] [nM],EC50 [5] [nM],"Ratio hCT/hAmylin funct. [5, 8]","Ratio hCT/hAmylin funct. [5, 9]","Ratio hCT/hAmylin funct. [5, 10]","Ratio hCT/hAmylin funct. [5, 11]",Solubility pH 6.5 Concentration (μM) [6],Solubility pH 7.0 Concentration (μM) [6],Solubility pH 7.5 Concentration (μM) [6] [μM],Solubility pH 8.0 Concentration (μM) [6] [μM],IC50 ([1]; binding to human amylin receptor) [nM],"Ratio hCT/hAmylin binding ([1]; human binding ratio, included for comparison)","Solubility pH 4.0 Concentration (μM) ([6]; pH 4.0, 18 hours room temperature)","Solubility pH 6.0 Concentration (μM) ([6]; pH 6.0, 18 hours room temperature)",Compound,"Plasma calcium red (%) 0-12 h ([2]; single s.c., maximal reduction 0-12 h, compared to vehicle) [%]","suppression of plasma calcium level relative to vehicle ([2]; single subcutaneous, over 24 hours)"
0.411,3,19.5,0.182,,,,,,,,,,,,,CC[C@H](C)[C@H](NC(=O)[C@H](C)NC(=O)CNC(=O)[C@H](Cc1ccccc1)NC(=O)[C@H](CC(N)=O)NC(=O)[C@@H]1CCCN1C(=O)[C@H](CO)NC(=O)[C@H](CO)NC(=O)[C@H](Cc1c[nH]cn1)NC(=O)[C@H](CCCNC(=N)N)NC(=O)[C@H](CC(C)C)NC(=O)[C@H](Cc1ccccc1)NC(=O)[C@H](CC(=O)O)NC(=O)[C@H](C)NC(=O)[C@H](CC(C)C)NC(=O)[C@H](CCCNC(=N)N)NC(=O)[C@H](CCC(N)=O)NC(=O)[C@@H](NC(=O)[C@H](C)NC(=O)[C@@H]1CSSC[C@H](NC(=O)[C@@H](N)CCCCNC(=O)CC[C@H](NC(=O)CC[C@H](NC(=O)CCCCCCCCCCCCCCCCCCC(=O)O)C(=O)O)C(=O)O)C(=O)N[C@@H](CC(N)=O)C(=O)N[C@@H]([C@@H](C)O)C(=O)N[C@@H](C)C(=O)N[C@@H]([C@@H](C)O)C(=O)N1)[C@@H](C)O)C(=O)N1CCC[C@H]1C(=O)N[C@@H](CO)C(=O)N[C@@H](CO)C(=O)N[C@H](C(=O)N[C@@H](CC(N)=O)C(=O)N[C@H](C(=O)NCC(=O)N[C@@H](CO)C(=O)N[C@@H](CC(=O)O)C(=O)N[C@H](C(=O)N[C@@H](Cc1ccc(O)cc1)C(N)=O)[C@@H](C)O)C(C)C)[C@@H](C)O [Example 2] (H-K([γGlu-γGlu-C20 diacid])CNTATCATQRLADFLRHSSPNFGAIPSSTNVGSDTY-NH2; disulfide 2-7),9,does not trigger a notable suppression of the calcium level
0.568,11.7,58.9,0.356,33.0,33.0,33.0,33.0,≧200 μM,≧200 μM,88,43,,,,,CC[C@H](C)[C@H](NC(=O)[C@H](C)NC(=O)CNC(=O)[C@H](Cc1ccccc1)NC(=O)[C@H](CC(N)=O)NC(=O)[C@@H]1CCCN1C(=O)[C@H](CO)NC(=O)[C@H](CO)NC(=O)[C@H](Cc1c[nH]cn1)NC(=O)[C@H](CCCNC(=N)N)NC(=O)[C@H](CC(C)C)NC(=O)[C@H](Cc1ccccc1)NC(=O)[C@H](CC(N)=O)NC(=O)[C@H](C)NC(=O)[C@H](CC(C)C)NC(=O)[C@H](CCCNC(=N)N)NC(=O)[C@H](CCC(N)=O)NC(=O)[C@@H](NC(=O)[C@H](C)NC(=O)[C@@H]1CSSC[C@H](NC(=O)[C@@H](N)CCCCNC(=O)COCCOCCNC(=O)COCCOCCNC(=O)CC[C@H](NC(=O)CCCCCCCCCCCCCCCCCCC(=O)O)C(=O)O)C(=O)N[C@@H](CC(N)=O)C(=O)N[C@@H]([C@@H](C)O)C(=O)N[C@@H](C)C(=O)N[C@@H]([C@@H](C)O)C(=O)N1)[C@@H](C)O)C(=O)N1CCC[C@H]1C(=O)N[C@@H](CO)C(=O)N[C@@H](CO)C(=O)N[C@H](C(=O)N[C@@H](CC(N)=O)C(=O)N[C@H](C(=O)NCC(=O)N[C@@H](Cc1c[nH]cn1)C(=O)N[C@@H](CC(N)=O)C(=O)N[C@H](C(=O)N[C@@H](Cc1ccc(O)cc1)C(N)=O)[C@@H](C)O)C(C)C)[C@@H](C)O [Example 97],,
1.02,1.73,66.3,0.253,6.8,6.8,6.8,6.8,≧200 μM,109 μM,26,31,,,,,CC[C@H](C)[C@H](NC(=O)[C@H](C)NC(=O)CNC(=O)[C@H](Cc1ccccc1)NC(=O)[C@H](CC(N)=O)NC(=O)[C@@H]1CCCN1C(=O)[C@H](CO)NC(=O)[C@H](CO)NC(=O)[C@H](Cc1c[nH]cn1)NC(=O)[C@H](CCCNC(=N)N)NC(=O)[C@H](CC(C)C)NC(=O)[C@H](Cc1ccccc1)NC(=O)[C@H](Cc1c[nH]cn1)NC(=O)[C@H](C)NC(=O)[C@H](CC(C)C)NC(=O)[C@H](CCCNC(=N)N)NC(=O)[C@H](CCC(N)=O)NC(=O)[C@@H](NC(=O)[C@H](C)NC(=O)[C@@H]1CSSC[C@H](NC(=O)[C@H](CCCNC(=N)N)NC(=O)CNC(=O)CC[C@H](NC(=O)CCCCCCCCCCCCCCCCCCC(=O)O)C(=O)O)C(=O)N[C@@H](CC(N)=O)C(=O)N[C@@H]([C@@H](C)O)C(=O)N[C@@H](C)C(=O)N[C@@H]([C@@H](C)O)C(=O)N1)[C@@H](C)O)C(=O)N1CCC[C@H]1C(=O)N[C@@H](CO)C(=O)N[C@@H](CO)C(=O)N[C@H](C(=O)N[C@@H](CC(N)=O)C(=O)N[C@H](C(=O)NCC(=O)N[C@@H](Cc1c[nH]cn1)C(=O)N[C@@H](CC(N)=O)C(=O)N[C@H](C(=O)N[C@@H](Cc1ccc(O)cc1)C(N)=O)[C@@H](C)O)C(C)C)[C@@H](C)O [Example 100] ({C20 diacid-γGlu}-GRCNTATCATQRLAHFLRHSSPNFGAIPSSTNVGHNTY-NH2; disulfide 3-8),,
1.19,89.6,9.29,5.17,,,,,,,,,1.19,7.8,7,64,CC[C@H](C)[C@H](NC(=O)[C@H](C)NC(=O)CNC(=O)[C@@H]1CCCN1C(=O)[C@H](CC(N)=O)NC(=O)[C@H](CC(N)=O)NC(=O)[C@H](CO)NC(=O)[C@H](CO)NC(=O)[C@H](Cc1c[nH]cn1)NC(=O)[C@H](CCCNC(=N)N)NC(=O)[C@H](CC(C)C)NC(=O)[C@H](Cc1ccccc1)NC(=O)[C@H](CCC(=O)O)NC(=O)[C@H](C)NC(=O)[C@H](CC(C)C)NC(=O)[C@H](CCCNC(=N)N)NC(=O)[C@H](CCC(N)=O)NC(=O)[C@@H](NC(=O)[C@H](C)NC(=O)[C@@H]1CSSC[C@H](NC(=O)[C@@H](N)CCCCNC(=O)CC[C@H](NC(=O)CC[C@H](NC(=O)CCCCCCCCCCCCCCCCCCC(=O)O)C(=O)O)C(=O)O)C(=O)N[C@@H](CC(N)=O)C(=O)N[C@@H]([C@@H](C)O)C(=O)N[C@@H](C)C(=O)N[C@@H]([C@@H](C)O)C(=O)N1)[C@@H](C)O)C(=O)N[C@@H](CC(C)C)C(=O)N[C@@H](CO)C(=O)N[C@@H](CO)C(=O)N[C@H](C(=O)N[C@@H](CC(N)=O)C(=O)N[C@H](C(=O)NCC(=O)N1CCC[C@H]1C(=O)N[C@@H](CCC(=O)O)C(=O)N[C@H](C(=O)N[C@@H](Cc1ccc(O)cc1)C(N)=O)[C@@H](C)O)C(C)C)[C@@H](C)O [Example 126] (H-K([γGlu-γGlu-C20 diacid])CNTATCATQRLAEFLRHSSNNPGAILSSTNVGPETY-NH2; disulfide 2-7),,
